Experimental data taken from patent US20120004304A1, “BILE SALT ADJUVANT FOR ANIMALS FOR IMPROVING FAT UTILIZATION EFFICIENCY IN THE BODIES OF ANIMALS, AND ANIMAL FEED COMPRISING SAME” (KIMIN INC., priority 2009, published 2012).

Legend:
[1] = Measurement of serum biochemical index; design: species or system ICR rats; details: rat, in vivo
Method: Feed for animal tests purchased from Shin Chon Feed Co., Ltd, were prepared and various additives were added thereto to obtain a molded animal feed with a predetermined size.
4-week old male ICR rats with a weight of […] were obtained from the laboratory animal center of Seoul National University, were divided into five groups (n=12) and maintained at a temperature of 23±2° C. and a variety of specific animal feeds were administered thereto. At this time, animals of each group were treated with the following chemicals: (percentage (%) means % by weight) • Control Group: animal feed+soybean oil 5% • Experimental Group: animal feed+soybean oil 5%+SSL 0.1% (HLB 20) • Comparative Example 1: animal feed+soybean oil 5%+lecithin 0.1% (HLB 4) • Comparative Example 2: animal feed+soybean oil 5%+glycerin monocaprate 0.1% (HLB 7) • Comparative Example 3: animal feed+soybean oil 5%+POE (20) sorbitan monolaurate 0.1% (HLB 16)
At 15 hours after the final weight of the test animals was measured (25 days), blood was collected from supraorbital […] blood vessel plexus of the rats using a capillary tube, serum was separated, and the following biochemical indexes were measured using a kit. […]

[2] = Fat emulsifying capacity test; assay type: physicochemical; details: 75% water, 24.3% fat, 0.7% emulsifier (3% of fat), stirred
Method: In order to confirm emulsifying capacity of sodiumstearoyl-2-lactylate(hereinafter, referred to as “SSL”) of the present invention, 75% water, 24.3% fat and 0.7% SSL (3% of the amount of fat used) were added and stirred. POE (20)-glyceride, mono-glyceride and lecithin were used as comparative examples.

[3] = Fat digestion percentage and ME with SSL in animal feed; assay type: in vivo; details: 0.05% by weight of SSL in animal feed
Excerpt: The use of SSL enables improvement in digestion and absorption efficiency of fats, growth promotion, improvement of qualities, and an increase in production yield. From the results of preferred experimental examples, it can be seen that, when 0.05% by weight of SSL is used, fat digestion percentage is increased to about 5 to 10% and ME is increased to about 100 kcal/kg.

| Compound | serum GPT and GOT versus control [1] | emulsifying capacity (appearance after stirring) [2] | ME increase [3] |
| --- | --- | --- | --- |
| CCCCCCCCCCCCCCCCCC(=O)OC(C)C(=O)OC(C)C(=O)[O-].[Na+] (centres unmarked) [SSL, sodium stearoyl-2-lactylate] | considerable improvement in serum GPT and GOT | homogeneous dispersion | about 100 kcal/kg |
| POE (20)-glyceride | – | layer separation | – |
| mono-glyceride | – | no emulsification | – |
